Holding throughout (type): cell-based, human
One assay concerns SIX1::GFP cells. Description: PIP-E6 pituitary induction and hormone release. The protocol:
Induction of anterior pituitary gland cells: Pituitary placode cells were induced by culturing SIX1::GFP cells according to the PIP-E6 protocol, wherein pituitary factors SHH, FGF8, FGF10 and/or hypothalamus CM were supplemented in the culture media from days 6-15.
Induction of anterior pituitary gland cells: SIX1::GFP hPSCs were cultured according to a modified PIP-E6 protocol, wherein pituitary factors such as FGF8, FGF10 or SHH, etc., were included in the culture media from days 6-14. Cells were sorted based on expression of SIX1::GFP, and were replated at a concentration of 10,000 cells/cm^2 on PO/L/F, and were incubated with small molecule/growth factors for 2 weeks. (FIG. 68). […] (FIG. 69).

For another assay, the system named is pre-placodal cells. Kind of assay: Pituitary placode specification under modified PIP. From the text:
Further treatment with agonists for SHH signaling (FIG. 39A) at the pre-placode stage (day 7-11) induced expression of the oral ectoderm marker SIX6 and PITX1 (FIG. 38B), master regulators of pituitary gland development (Tremblay et al., 1998).
Endocrine cells of the anterior pituitary gland are derived from three main precursors lineages (Scully and Rosenfeld, 2002). […] Induction of PIT1 and GATA2 precursor lineages was less efficient but was increased following treatment with the γ-secretase inhibitor DAPT (FIGS. 38F, 38G).
Differentiation of hormone producing cells: During placode induction protocol, Sonic Hedgehog (C25II-R&D 100 ng/ml) and Purmorphamine (Stemgent, 1 μM) were added between days 7-11 of PIP to promote differentiation towards pituitary placode anlage. The cells were maintained without passaging in N2 medium and treated with additional factors such as DAPT (Tocris, 10 μM), between day 13 and day 17 of differentiation to induce PIT1+ and GATA2+ precursor cells (see FIG. 39A).

The test system of the next assay is hESC. Kind of assay: Neural induction of hESC by dual SMAD inhibition (PAX6 expression). The following applies: 10 uM to 30 nM, each added to 10 uM of SB431542. The procedure:
In one embodiment, the present invention contemplates a method establishing an even cell distribution for inducing homogenous neural differentiation of hESCs. To this end, undifferentiated hESC were dissociated into single cells and re-plated onto Matrigel coated dishes in conditioned medium supplement with ROCK inhibitor, Y-27632 (Wananabe et al., 2007). After 72 hours, cells were switched from hESC conditions to knock-out serum replacement medium (KSR) containing either Noggin, SB4315242, or both factors and allowed to differentiate for a total of 11 days (FIG. 1A). […] Neural induction was monitored by expression of PAX6, an early marker of neuroectodermal differentiation (Callaerts, et al., Annu Rev Neurosci 20:483 (1997).
hESC cultures were disaggregated using accutase for 20 minutes, washed using hESC media and pre-plated on gelatin for 1 hour at 37° C. in the presence of ROCK inhibitor to remove MEFs. The nonadherent hESC were washed and plated on matrigel at a density of 10,000-25,000 cells/cm^2 on matrigel (BD) coated dishes in MEF conditioned hESC media (CM) spiked with 10 ng/mL of FGF-2 and ROCK-inhibitor. […] The ROCK inhibitor was withdrawn, and hESC were allowed to expand in CM for 3 days or until they were nearly confluent. […]

For assay [1], the system named is NSB derived neural precursor cells. Description: Ventral patterning of NSB derived neural precursor cells by FP conditioned media. The following applies: with CM from hESC derived FP. The text has this: The FP has important functional roles during development in neural patterning and axonal path finding (Jessell, 2000). To assess the functional properties of hESCs derived FP conditioned media was isolated at days 9 and 11 and tested for expression of Netrin-1 in the medium using ELISA (FIG. 17A). Under normal NSB conditions, Netrin-1 is detectable at Day 9 and decreases at Day 11 while in the NSB+SHH condition, there is a 3.5 fold increase in Netrin-1 levels, increasing at Day 11 (FIG. 17B). SHH is a critical patterning factor secreted by FP cells and specifying ventral cell types in a dose-dependent manner. To test if hESCs derived FP secretes factors that can specify ventral precursor domains, conditioned media (CM) was isolated at Days 9 and 11 of the differentiation. At Day 6, exogenous SHH was removed and cultures were washed to eliminate any exogenously added SHH from the medium. Naïve neural progenitor cells were isolated at Day 11 of the control (NSB) protocol and cultured with either NSB CM or FP CM. After Day 5 of culture in the presence of CM, the inventors probed for the expression of ventral precursor markers and expression of the SHH responsive gene GLI2. […] Increase in the expression of ventral markers was confirmed at the level of protein (FIG. 17D).

Where a name gives a salt, the structure may show the parent alone.

The source of these data is patent publication US12618044B2, “Specification of functional cranial placode derivatives from human pluripotent stem cells” (MEMORIAL SLOAN-KETTERING CANCER CENTER, priority 2013, dated 2026).

With `C[C@H](NC(=O)Cc1cc(F)cc(F)c1)C(=O)N[C@H](C(=O)OC(C)(C)C)c1ccccc1` [DAPT], in the assay with SIX1::GFP cells, the “proportion of each of the three pituitary precursor lineages” value is “modulated”. Further, in the assay on pre-placodal cells, the “Induction of PIT1 and GATA2 precursor lineages” value is “increased”.
For `c1cc(-c2cnn3cc(-c4ccc(OCCN5CCCCC5)cc4)cnc23)ccn1` [Dorsomorphin, 6-[4-[2-(1-Piperidinyl)ethoxy]phenyl]-3-(4-pyridinyl)-pyrazolo[1,5-a]pyrimidine dihydrochloride], in the assay on hESC, the “efficiency based on the percentage of PAX6+ cells, versus Noggin/SB431542” value is listed as “not as high”.
Consider `CC1=C2C[C@H]3[C@@H](CC=C4C[C@@H](O)CC[C@@]43C)[C@@H]2CC[C@]12O[C@@H]1C[C@H](C)CN[C@H]1[C@H]2C` [cyclopamine], for which the “NKX2.1, NKX6.1, and GLI2 expression” value in assay [1] is on record as “significantly reduced”.
